Assays:
[1] = test system: MDSCs and T cells; assay: T cell proliferation in a co-culture model of MDSCs and T cells (flow cytometry); type: cell-based, mice; conditions: MDSCs treated with 1 µM compound for 12 h, 48 h co-culture with T cells (1:1), compared to the control group
Method: Under sterile conditions, the tibia was removed, both ends of the bone were cut, and bone marrow was repeatedly flushed into a 15 mL centrifuge tube using a 1 mL syringe filled with culture medium. Centrifuge at 1600 rpm for 5 min to collect bone marrow cells. […] The spleen cell suspension was then transferred into a 15 mL centrifuge tube. Centrifuge at 1600 rpm for 5 min to collect T cells. Wash twice with 1×PBS. Resuspend the centrifuged T cells in 1 mL PBS and add 1 mL of 10 µM CFDA-SE solution. Incubate at room temperature for 8 min. […] After drug administration, collect MDSC cells into centrifuge tubes. Centrifuge at 1600 rpm for 5 min, remove supernatant, resuspend in 1 mL fresh medium, and plate. Add 1 mL stimulated activated T cells (1:1 ratio) for 48 h co-culture. After incubation, collect cells into centrifuge tubes, wash twice with PBS, and incubate with Fc antibody at room temperature in the dark for 10 min. Add CD3-labeled flow cytometry antibody and incubate at 4 °C in the dark for 30 min. After incubation, wash cells with PBS, resuspend in 300 µL PBS, and analyze by flow cytometry.

[2] = Water solubility testing of compounds (HPLC); conditions: deionized water, 37 °C water bath
[3] = Conversion rate of salt-form prodrugs to parent compound in HEPES buffer solution; type: physicochemical; conditions: conversion to Compound 1, HEPES buffer pH 7.4, 37 °C
Method: Adjust the pH to 7.4 using 0.5 M NaOH, then dilute to a final volume 100 mL with distilled water.
(§1) Sample Analysis: Dissolve 0.6 mg of the compound in 250 µl of deionized water separately. Add 250 µl of mouse serum or HEPES 7.4 solution to the sample, incubate at a constant temperature of 37 °C, and collect samples at different time points. Pipette 20 µl of the sample to an EP tube, add 60 µl of methanol, vortex to mix thoroughly, and centrifuge at 12,000 rpm at 4 °C for 10 min. At 1 h, 2 h, 4 h, 8 h, and 12 h respectively, collect the supernatant for HPLC analysis. Inject 10 µL of sample and record the corresponding peak areas.

[4] = Conversion rate of salt-form prodrugs to parent compound in mouse plasma; type: in vitro ADME; conditions: conversion to Compound 1, mouse plasma, 37 °C
Method: Pharmaceutically acceptable salts of guaiane-type sesquiterpene lactone derivatives were selected and evaluated for their conversion rates to Compound 1 and Compound 83 in plasma and HEPES buffer, with results shown in Tables 2-1, 2-2, 3-1, and 3-2.
Plasma Preparation: Collect mouse plasma into an EP tube pre-loaded with sodium heparin, centrifuge at 8000 rpm for 10 minutes at 4°C, and then collect the supernatant.
as §1, with “areas. Chromatographic conditions: Hanbang C18 column (4.6 × 250 mm, 5 µm); mobile phase: acetonitrile: […] ammonium formate solution = 60:40; flow rate 1.0 mL/min; detection wavelength 210 nm; column temperature 30 °C. [drawing 171] Table 2-1. Conversion Rate of Compounds 20-42 to Compound 1 at Different Time Points in HEPES Buffer Solution” for “areas.”

[5] = test system: renal injury markers (Ngal, Havcr1), inflammatory cytokines (TNF, IL-6, IL-1), fibrosis-related factors (α-Sma, Col1a1, Tgfb1); assay: Folic acid acute kidney injury model in mice: Q-PCR of kidney tissue; type: in vivo, C57BL/6 mice; conditions: kidney mRNA, acute model (FA)
[6] = test system: chronic kidney injury induced by unilateral ureteral ligation; assay: Unilateral ureteral ligation (UUO) chronic kidney injury model in mice: Scr and BUN; type: in vivo, C57BL/6 mice; conditions: serum, 14 days

SMILES | T-cell proliferation rate (%) [1] | Water-solubility [2] [µg/mL] | other results
CCOC(=O)[C@@H]1CCCN1C[C@@H]1C(=O)O[C@H]2[C@H]1CC[C@@]1(C)C[C@]13CC[C@@](C)(O)[C@H]23 [compound 4] | ++ (T-cell proliferation rate within the 20-40% range compared to the control group) | 822 | –
C[C@@]12CC[C@@H]3[C@H](OC(=O)[C@H]3CN3CCNCC3)[C@@H]3[C@]1(CC[C@@]3(C)O)C2 [compound 7] | – | 1488 | –
CCCN(CCC)C[C@@H]1C(=O)O[C@H]2[C@H]1CC[C@@]1(C)C[C@]13CC[C@@](C)(O)[C@H]23 [compound 10] | – | 715 | –
CCCCN(CCCC)C[C@@H]1C(=O)O[C@H]2[C@H]1CC[C@@]1(C)C[C@]13CC[C@@](C)(O)[C@H]23 [compound 11] | – | 682 | –
C[C@@]12CC[C@@H]3[C@H](OC(=O)[C@H]3CN3CC4CCCC4C3)[C@@H]3[C@]1(CC[C@@]3(C)O)C2 (some centres unmarked) [compound 13] | – | 419 | –
C[C@@]12CC[C@@H]3[C@H](OC(=O)[C@H]3CN3CCC4(CCCC4)CC3)[C@@H]3[C@]1(CC[C@@]3(C)O)C2 [compound 15] | – | 310 | –
C[C@@]12CC[C@@H]3[C@H](OC(=O)[C@H]3CN3CCC4(CC3)CC4)[C@@H]3[C@]1(CC[C@@]3(C)O)C2 [compound 18] | – | 584 | –
C[C@@]12CC[C@@H]3[C@H](OC(=O)[C@H]3CN3CCCCCCC3)[C@@H]3[C@]1(CC[C@@]3(C)O)C2 [compound 19] | – | 623 | –
CN(C)C[C@@H]1C(=O)O[C@H]2[C@H]1CC[C@@]1(C)C[C@]13CC[C@@](C)(O)[C@H]23 [compound 21] | – | – | Release rate ([3]; 1 h): 3.3%; Release rate ([3]; 2 h): 10.2%; Release rate ([3]; 4 h): 18.1%; Release rate ([3]; 8 h): 38.9%; Release rate ([3]; 12 h): 51.9%; Release rate ([4]; 1 h): 5.4%; Release rate ([4]; 2 h): 10.7%; Release rate ([4]; 4 h): 17.9%; Release rate ([4]; 8 h): 39.3%; Release rate ([4]; 12 h): 55.4%; α-Sma ([5]; oral 0.1 mg/kg): 1.80±0.42; α-Sma ([5]; oral 1 mg/kg, 1 mg/kg): 0.90±0.21; BUN ([6]; oral gavage 0.1 mg/kg): 17.63±1.13; Scr ([6]; oral gavage 0.1 mg/kg): 157.79±21.92; BUN ([6]; oral gavage 1 mg/kg, 1 mg/kg): 9.45±1.55; Scr ([6]; oral gavage 1 mg/kg, 1 mg/kg): 79.87±13.44
C=C1C(=O)O[C@H]2[C@H]1CCC(C)=C1CC[C@@](C)(OC(=O)N3CCC(C)CC3)[C@@H]12 [compound 84] | ++ (T-cell proliferation rate within the 20-40% range compared to the control group) | – | –
C=C1C(=O)O[C@H]2[C@H]1CCC(C)=C1CC[C@@](C)(OC(=O)N3CCN(C)CC3)[C@@H]12 [compound 85] | + (T-cell proliferation rate within the 0-20% range compared to the control group) | – | –
C=C1C(=O)O[C@H]2[C@H]1CCC(C)=C1CC[C@@](C)(OC(=O)N3CCN(CC)CC3)[C@@H]12 [compound 86] | ++ (T-cell proliferation rate within the 20-40% range compared to the control group) | – | –
C=C1C(=O)O[C@H]2[C@H]1CCC(C)=C1CC[C@@](C)(OC(=O)N3CCOCC3)[C@@H]12 [compound 87] | +++ (T-cell proliferation rate >40% compared to the control group) | – | –
C=C1C(=O)O[C@H]2[C@H]1CCC(C)=C1CC[C@@](C)(OC(=O)NCC(C)C)[C@@H]12 [compound 88] | ++ (T-cell proliferation rate within the 20-40% range compared to the control group) | – | –
C=C1C(=O)O[C@H]2[C@H]1CCC(C)=C1CC[C@@](C)(OC(=O)NCC(F)F)[C@@H]12 [compound 89] | ++ (T-cell proliferation rate within the 20-40% range compared to the control group) | – | –
C=C1C(=O)O[C@H]2[C@H]1CCC(C)=C1CC[C@@](C)(OC(=O)N(C)CCC)[C@@H]12 [compound 90] | ++ (T-cell proliferation rate within the 20-40% range compared to the control group) | – | –
C=C1C(=O)O[C@H]2[C@H]1CCC(C)=C1CC[C@@](C)(OC(=O)N(CC)CCC)[C@@H]12 [compound 91] | ++ (T-cell proliferation rate within the 20-40% range compared to the control group) | – | –
C=C1C(=O)O[C@H]2[C@H]1CCC(C)=C1CC[C@@](C)(OC(=O)NCCCN3CCOCC3)[C@@H]12 [compound 92] | ++ (T-cell proliferation rate within the 20-40% range compared to the control group) | – | –
C=C1C(=O)O[C@H]2[C@H]1CCC(C)=C1CC[C@@](C)(OC(=O)NCCCN3CCN(C)CC3)[C@@H]12 [compound 93] | ++ (T-cell proliferation rate within the 20-40% range compared to the control group) | – | –
C=C1C(=O)O[C@H]2[C@H]1CCC(C)=C1CC[C@@](C)(OC(=O)N3CCC(N4CCOCC4)CC3)[C@@H]12 [compound 94] | ++ (T-cell proliferation rate within the 20-40% range compared to the control group) | – | –
C=C1C(=O)O[C@H]2[C@H]1CCC(C)=C1CC[C@@](C)(OC(=O)NCCN3CCN(C)CC3)[C@@H]12 [compound 95] | ++ (T-cell proliferation rate within the 20-40% range compared to the control group) | – | –
CC1=C2CC[C@@](C)(OC(=O)N3CCCCC3)[C@@H]2[C@H]2OC(=O)[C@@H](CN3CCCC3)[C@@H]2CC1 [compound 96] | + (T-cell proliferation rate within the 0-20% range compared to the control group) | – | –
CC1=C2CC[C@@](C)(OC(=O)N3CCCCC3)[C@@H]2[C@H]2OC(=O)[C@@H](CN(C)C)[C@@H]2CC1 [compound 97] | + (T-cell proliferation rate within the 0-20% range compared to the control group) | – | –
C=C1C(=O)O[C@H]2[C@H]1CCC(C)=C1CC[C@@](C)(OC(=O)NCCN3CCOCC3)[C@@H]12 [compound 98] | + (T-cell proliferation rate within the 0-20% range compared to the control group) | 202500 | –
